Biological target: T1, N1RIS1_FUSC4 (CYP51 of TR4; Eburicol 14-alpha-demethylase) (Fusarium odoratissimum, UniProt N1RIS1)
T1 construct: gene FOC4_g10015154
T1 sequence (N1RIS1 1-527): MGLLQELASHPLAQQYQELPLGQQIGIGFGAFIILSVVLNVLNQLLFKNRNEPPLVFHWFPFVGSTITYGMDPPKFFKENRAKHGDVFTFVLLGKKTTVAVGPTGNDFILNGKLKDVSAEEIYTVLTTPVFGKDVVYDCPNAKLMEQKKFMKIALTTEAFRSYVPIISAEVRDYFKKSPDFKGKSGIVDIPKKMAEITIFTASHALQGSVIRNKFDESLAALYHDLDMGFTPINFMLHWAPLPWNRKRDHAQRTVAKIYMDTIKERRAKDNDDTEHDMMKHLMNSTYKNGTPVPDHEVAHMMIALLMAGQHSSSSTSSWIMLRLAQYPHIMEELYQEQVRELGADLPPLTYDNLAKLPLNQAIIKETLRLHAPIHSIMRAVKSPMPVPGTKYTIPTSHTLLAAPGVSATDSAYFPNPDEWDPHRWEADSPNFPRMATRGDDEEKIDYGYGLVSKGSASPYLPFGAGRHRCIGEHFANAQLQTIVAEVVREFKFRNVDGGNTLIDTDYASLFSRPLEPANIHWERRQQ
Experiment: SPR (Biacore T200, protein amine-coupled on CM5 chip, […] kinetic fit)
Assay type: binding
Conditions: 25 °C; 3.125-50 μM analyte

O[C@](Cc1ccccc1Cl)(Cn1[nH]cnc1=S)C1(Cl)CC1 [R-Pro]
Kd: 342 pM
